{"source": "patent US10793547B2", "about": "“Modulator of the cystic fibrosis transmembrane conductance regulator, pharmaceutical compositions, methods of treatment, and process for making the modulator” (Vertex Pharmaceuticals Incorporated, priority 2016, dated 2020)", "key": {"Rat hepatocytes": {"tested_on": "Rat hepatocytes", "assay": "Hepatocyte clearance, rat hepatocytes", "format": "in vitro ADME", "conditions": "percent unchanged"}, "human PXR": {"biological_target": "T1, human PXR (Homo sapiens, UniProt O75469)", "T1 construct": "host or cells: DPX-2 cell line (derived from HepG2)", "T1 sequence (O75469 1-434)": "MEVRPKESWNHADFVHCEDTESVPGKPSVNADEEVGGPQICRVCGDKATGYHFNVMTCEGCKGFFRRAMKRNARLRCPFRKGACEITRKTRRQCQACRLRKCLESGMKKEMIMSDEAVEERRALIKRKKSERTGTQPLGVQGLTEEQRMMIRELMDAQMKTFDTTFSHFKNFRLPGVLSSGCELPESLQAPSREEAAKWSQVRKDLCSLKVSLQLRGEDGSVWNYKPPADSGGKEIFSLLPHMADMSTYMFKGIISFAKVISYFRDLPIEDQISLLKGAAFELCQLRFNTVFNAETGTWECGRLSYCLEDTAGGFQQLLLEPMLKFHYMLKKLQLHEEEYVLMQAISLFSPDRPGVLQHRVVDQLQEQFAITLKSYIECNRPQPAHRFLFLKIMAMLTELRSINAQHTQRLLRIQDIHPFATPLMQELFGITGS", "assay": "PXR assay: PXR mediated CYP3A4 induction in DPX-2 cell line", "format": "cell-based", "conditions": "DPX-2 cells", "method_in_brief": "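HepG2-derived DPX-2 cells stably carrying human PXR and a CYP3A4 promoter/enhancer–luciferase reporter; 11 doses from 0.1 to 60 μM for 48 h, rifampicin as positive control. Viability read by fluorescence, then luciferase luminescence; max fold induction over vehicle and EC50 reported.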"}, "Rat IV and PO PK studies": {"assay": "Rat IV and PO PK studies", "format": "in vivo, male Sprague-Dawley rats", "method": "C. Experimental Protocol for Rat IV and PO PK Studies\nThe tested compound was administered to male Sprague-Dawley rats as a single nominal intravenous dose of 3.0 mg/kg as a solution in 10% NMP, 10% solution, 15% EtOH, 35% PEG400 and 30% D5W. The tested compound was also administered to male Sprague-Dawley rats at single nominal oral dose of 3 mg/kg as a solution in 5% NMP, 30% PEG400, 10% TPGS, 5% PVP-K30 at 5 mL/kg dose volume. Analyses of plasma and dose preparations were performed using LC/MS/MS.\nPlasma concentration-time profiles of the tested compound in Sprague-Dawley rats at scheduled (nominal) sampling times were analyzed by noncompartmental pharmacokinetic methods using PK function within Watson LIMS software, Version 7.4.2 (Thermo Scientific Inc, Waltham, Mass.). AUC values were calculated using the linear trapezoidal rule."}, "[1]": {"tested_on": "F508del/F508del-HBE cells", "assay": "Ussing chamber chloride transport experiment", "format": "cell-based", "method": "Ussing chamber experiments were performed on polarized airway epithelial cells expressing F508del to further characterize the F508del modulators identified in the optical assays. Non-CF and CF airway epithelia were isolated from bronchial tissue, cultured as previously described (Galietta, L. J. V., Lantero, S., Gazzolo, A., Sacco, O., Romano, L., Rossi, G. A., & Zegarra-Moran, O. (1998) In Vitro Cell. Dev. Biol. 34, 478-481), and plated onto Costar® Snapwell™ filters that were precoated with NIH3T3-conditioned media. After four days the apical media was removed and the cells were grown at an air liquid interface for >14 days prior to use. […] CF-HBE were isolated from patients homozygous for F508del or compound heterozygous for F508del with an different disease causing mutation on the other allele.\nHBE grown on Costar® Snapwell™ cell culture inserts were mounted in an Ussing chamber (Physiologic Instruments, Inc., San Diego, Calif.), and the transepithelial resistance and short-circuit current in the presence of a basolateral to apical Cl^− gradient (ISC) were measured using a voltage-clamp system (Department of Bioengineering, University of Iowa, Iowa). Briefly, HBE were examined under voltage-clamp recording conditions (Vhold=0 mV) at 37° C. […]"}, "F508del-CFTR": {"biological_target": "T2, F508del-CFTR (Homo sapiens, UniProt P13569, DEL508-508)", "T2 construct": "expressed in transfected cells", "T2 sequence (P13569 with tags, fused parts or gaps DEL508-508)": "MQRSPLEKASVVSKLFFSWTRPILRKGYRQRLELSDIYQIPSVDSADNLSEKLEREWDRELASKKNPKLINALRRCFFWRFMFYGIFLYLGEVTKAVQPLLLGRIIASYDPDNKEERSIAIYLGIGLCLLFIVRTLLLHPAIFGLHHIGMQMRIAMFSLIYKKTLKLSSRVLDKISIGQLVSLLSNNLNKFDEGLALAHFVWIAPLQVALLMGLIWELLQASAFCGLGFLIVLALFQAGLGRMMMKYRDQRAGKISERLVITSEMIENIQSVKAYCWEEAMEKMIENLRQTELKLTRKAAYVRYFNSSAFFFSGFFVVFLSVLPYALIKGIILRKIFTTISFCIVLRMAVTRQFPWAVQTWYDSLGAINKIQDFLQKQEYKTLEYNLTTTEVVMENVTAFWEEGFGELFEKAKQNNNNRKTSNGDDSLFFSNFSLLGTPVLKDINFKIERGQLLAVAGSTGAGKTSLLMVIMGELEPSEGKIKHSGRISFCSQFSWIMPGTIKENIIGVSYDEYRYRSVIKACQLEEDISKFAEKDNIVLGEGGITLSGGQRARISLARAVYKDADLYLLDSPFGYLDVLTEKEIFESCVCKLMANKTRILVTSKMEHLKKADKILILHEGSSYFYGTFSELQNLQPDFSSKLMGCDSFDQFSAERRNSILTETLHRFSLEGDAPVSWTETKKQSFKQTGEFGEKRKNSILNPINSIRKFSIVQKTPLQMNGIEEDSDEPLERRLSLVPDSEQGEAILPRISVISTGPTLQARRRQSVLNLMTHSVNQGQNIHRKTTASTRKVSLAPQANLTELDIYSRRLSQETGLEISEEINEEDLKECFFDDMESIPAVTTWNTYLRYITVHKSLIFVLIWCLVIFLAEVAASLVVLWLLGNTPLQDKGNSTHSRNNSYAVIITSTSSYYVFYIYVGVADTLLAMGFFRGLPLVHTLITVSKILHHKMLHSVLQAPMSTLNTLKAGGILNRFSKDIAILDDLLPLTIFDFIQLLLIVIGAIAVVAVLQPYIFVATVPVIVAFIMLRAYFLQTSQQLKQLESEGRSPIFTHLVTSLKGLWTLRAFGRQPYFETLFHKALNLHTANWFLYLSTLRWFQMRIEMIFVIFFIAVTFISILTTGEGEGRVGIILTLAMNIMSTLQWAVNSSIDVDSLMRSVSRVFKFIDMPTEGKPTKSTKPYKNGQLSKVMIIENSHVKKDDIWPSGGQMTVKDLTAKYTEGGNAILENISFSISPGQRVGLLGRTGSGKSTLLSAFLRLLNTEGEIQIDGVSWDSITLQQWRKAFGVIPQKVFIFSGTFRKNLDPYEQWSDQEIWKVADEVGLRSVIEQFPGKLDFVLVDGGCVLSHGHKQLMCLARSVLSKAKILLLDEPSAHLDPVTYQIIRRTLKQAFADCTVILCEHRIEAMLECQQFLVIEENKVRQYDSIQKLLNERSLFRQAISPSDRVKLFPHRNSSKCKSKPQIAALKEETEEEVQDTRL", "assay": "Membrane potential optical (FLIPR) assay for F508del-CFTR modulators in NIH 3T3 cells", "format": "cell-based", "conditions": "for EC50: assay A1", "method_in_brief": "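NIH3T3 mouse fibroblasts stably expressing F508del, seeded on matrigel and cultured 18-24 h at 37 °C; for correction, cells were cultured with or without compound for 18-24 h. Cells were loaded with voltage-sensing dye, then compound was added in one step with a chloride gradient (chloride replaced by gluconate). Membrane potential was read by fluorescence.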"}, "[2]": {"assay": "Metabolism of Compound 1 in vitro and in vivo", "conditions": "in vitro and in vivo"}, "[3]": {"assay": "MDCK-Wild Type permeability, 96 well + 0.1% BSA", "format": "in vitro ADME", "conditions": "dog, MDCK, A-B direction, read-out: MDCK-Wild Type-Permeability 96 well + 0.1% BSA Papp compound (A-B)"}, "MDCK-Wild Type": {"tested_on": "MDCK-Wild Type", "assay": "MDCK-Wild Type permeability, 96 well + 0.1% BSA", "format": "in vitro ADME", "conditions": "A-B direction"}, "[4]": {"conditions": "NIH 3T3 cells expressing F508del, read-out: CFTRdF508 Cor 3T3 FLIPR 384 CFTRdF508 MP 3T3 770 EC50"}}, "note": "Read-outs that look alike come from different tables or passages of the source.", "data": [{"compound": "Cc1nn(C)cc1S(=O)(=O)NC(=O)c1ccc(-n2ccc(OCC(C)(C)C(F)(F)F)n2)nc1N1C[C@@H](C)CC1(C)C", "note": "[Compound 1, N-(1,3-dimethylpyrazol-4-yl)sulfonyl-6-[3-(3,3,3-trifluoro-2,2-dimethyl-propoxy)pyrazol-1-yl]-2-[(4S)-2,2,4-trimethylpyrrolidin-1-yl]pyridine-3-carboxamide]", "values": [{"measurement": "Hepatocyte clearance-Rat Rat hepatocytes CL pct_unchanged", "setting": "Rat hepatocytes", "result": 66, "unit": "%"}, {"measurement": "CYP3A4 Induction-PXR human PXR internal Max % Activity", "setting": "human PXR", "result": 2, "unit": "%"}, {"measurement": "RAT PLASMA-RAW IV-bolus CL_drg", "setting": "Rat IV and PO PK studies; IV bolus, nominal 3.0 mg/kg", "result": 1.6, "unit": "mL/min/kg"}, {"measurement": "RAT PLASMA-RAW PO % F_drg", "setting": "Rat IV and PO PK studies; PO, nominal 3 mg/kg", "result": 83, "unit": "%"}, {"measurement": "AUC(0-inf)", "setting": "Rat IV and PO PK studies; male, Sprague-Dawley, plasma, PO, nominal 3 mg/kg, read-out: RAT PLASMA-RAW PO AUC (0-inf)_drg", "result": 23500, "unit": "ng·h/mL"}, {"measurement": "effect on chloride transport in combination with Compound II", "setting": "[1]", "result": "additive to the effect of Compound II"}, {"measurement": "chloride transport", "setting": "[1]; Compound 1 alone", "result": "enhanced chloride transport"}, {"measurement": "Emax", "setting": "F508del-CFTR; NIH3T3, assay A1, read-out: % Efficacy relative to Compound II", "result": "≥ 100", "unit": "%"}, {"measurement": "EC50", "setting": "F508del-CFTR; [4]", "result": 70, "unit": "nM"}, {"measurement": "EC50", "setting": "F508del-CFTR; read-out: EC50", "result": "< 3000", "unit": "nM"}, {"measurement": "metabolism", "setting": "[2]", "result": "metabolized both in vitro and in vivo, mostly by oxidative metabolism"}, {"measurement": "Papp A→B", "setting": "[3]", "result": 4.5, "unit": "×10⁻⁶ cm/s"}]}, {"compound": "Cc1nn(C)cc1S(=O)(=O)NC(=O)c1ccc(-n2ccc(OC3CC3C(F)(F)F)n2)nc1N1C[C@@H](C)CC1(C)C", "note": "(stereo partly drawn) [Compound 35, N-(1,3-dimethylpyrazol-4-yl)sulfonyl-6-[3-[2-(trifluoromethyl)cyclopropoxy]pyrazol-1-yl]-2-[(4S)-2,2,4-trimethylpyrrolidin-1-yl]pyridine-3-carboxamide]", "values": [{"measurement": "Hepatocyte clearance-Rat Rat hepatocytes CL pct_unchanged", "setting": "Rat hepatocytes", "result": 54, "unit": "%"}, {"measurement": "CYP3A4 Induction-PXR human PXR internal Max % Activity", "setting": "human PXR", "result": 21, "unit": "%"}, {"measurement": "EC50", "setting": "F508del-CFTR; [4]", "result": 1400, "unit": "nM"}, {"measurement": "MDCK-Wild Type-Permeability 96 well + 0.1% BSA Papp compound (A-B)", "setting": "MDCK-Wild Type", "result": "5.5 10E-6 cm/s"}]}]}
